{
  "source": "patent US20230212316A1",
  "about": "“IgG EPITOPE PEPTIDES THAT BIND […] AND METHODS OF USE THEREOF” (priority 2021, published 2023)",
  "key": {"[1]": {"system": "serum IgG (rheumatoid factors)", "test": "Peptide ELISA: serum IgG binding to biotinylated IgG1-derived peptides", "parameters": "species or system human", "details": "for Serum IgG binding to the peptide compared to controls: FIG. 3; for IgG binding to the peptide: Sjogren's disease subjects previously RF positive versus matched controls, FIG. 9B"}, "[2]": {"system": "serum IgM (rheumatoid factors)", "test": "Peptide ELISA: serum IgM binding to biotinylated IgG1-derived peptides", "parameters": "species or system human", "details": "for IgM binding to the peptide: Sjogren's disease subjects previously RF positive versus matched controls, FIG. 9B; for IgM that binds to the peptide: COVID-19 convalescent subjects versus RA+, RA−, smokers and naïve controls, FIG. 8A"}, "plasma IgG": {"system": "plasma IgG", "details": "anti-CCP+ subjects who later develop RA compared to anti-CCP− subjects and CCP+ subjects who do not develop RA; FIG. 10B", "description": "Human Subjects: Human subjects research was approved by the University of Wisconsin (UW) Institutional Review Board and complied with the Helsinki Declaration. Most sera were obtained from the UW Rheumatology Biorepository, which includes rheumatoid arthritis, systemic lupus erythematosus, Sjögren's disease (SjD), spondyloarthropathy, and controls (including current and never smokers) collected prior to 2019. Subjects were ≥18 years old. All subjects with rheumatic disease were confirmed to have that disease by a rheumatologist. […] Controls were matched by age and gender and carried none of the following diagnoses: RA, lupus, Sjögren's disease, scleroderma, psoriasis, psoriatic arthritis, ankylosing spondylitis, reactive arthritis, ulcerative colitis, Crohn's disease, multiple sclerosis, type I diabetes, hematologic malignancy, or past COVID-19.\nEnzyme Linked Immunosorbent Assay (ELISA): For peptide ELISA, plates were coated with 5 μg/ml streptavidin (Thermo Fisher Scientific) for 1 hour at room temperature (RT) or overnight at 4 degrees Celsius, washed with PBS, then coated with 0.1-1.0 μM of peptide conjugated to biotin at the C terminus (Biomatik, Kitchener, Canada or Peptide2.0, Chantilly, Va., USA) for 1 hour at RT. For IgG Fc ELISA, plates were coated overnight at 4° C. with 10 μg/ml IgG Fc in PBS in 4 forms: treated with PADs in buffer, treated with 0.1M KOCN in dH2O, diluted in citrullination buffer, diluted in dH2O. After washing with PBS, plates were blocked for 1 hour to overnight at RT with 5% non-fat dried milk in 0.2% Tween 20 in PBS (serum ELISA block) or 1% BSA in PBS (mAMPA ELISA block without 0.1% Tween 20). Sera diluted 1:100, 1:200 or 1:2000 in serum ELISA block or 1 μg/m1mAMPAs in mAMPA ELISA block were applied to plates overnight at 4° C. […] After one hour at RT, plates were washed, developed with 3,3′,5,5′-tetramethylbenzidine (Thermo Fisher Scientific), then stopped with 0.18 M sulfuric acid. Plates were read on a FilterMAX F3 (Molecular Devices, San Jose, USA) at 450 and 562, with 562 values subtracted from 450 values for each sample. For each sample, absorbance values for uncoated wells were subtracted from peptide- or Fc-coated wells to exclude non-specific binding, and absorbance values for PAD-containing buffer were subtracted from wells coated with PAD-treated IgG Fc to exclude anti-PAD reactivity."}, "plasma IgM": {"system": "plasma IgM", "test": "Pre-clinical RA peptide ELISA: plasma IgM binding to IgG1 peptides", "parameters": "species or system human", "details": "CCP− controls and anti-CCP+ subjects who do not develop RA imminently compared to anti-CCP+ subjects who do develop RA imminently; FIG. 10A", "description": "Subjects were ≥18 years old."}, "[3]": {"details": "COVID-19 convalescent subjects, 5 weeks post-symptom resolution (n=121)"}, "[4]": {"details": "Control (non-smoking COVID-19 naïve controls without autoimmune disease, n=54)"}, "[5]": {"details": "RA+ (seropositive rheumatoid arthritis subjects, n=31)"}, "[6]": {"details": "RA− (seronegative rheumatoid arthritis subjects, n=26)"}},
  "note": "Where no end group is shown, it is not given here. [ ]: non-standard residue; d: D form. Cit = NC(=O)NCCC[C@H](N)C(=O)O",
  "data": [
    {"sequence": "CPPCPAPELLGGPSV (IgG epitope) [Peptide P01857-109, native peptide from the hinge region of IgG1 starting at position 109]", "values": [
      {"measurement": "Serum IgG binding to the peptide compared to controls", "setting": "[1]; anti-CCP+RF+ RA", "result": "trend towards increased binding"},
      {"measurement": "Serum IgG binding to the peptide compared to controls", "setting": "[1]; anti-CCP-RF− RA", "result": "no increased binding"},
      {"measurement": "Serum IgG binding to the peptide compared to controls", "setting": "[1]; anti-SSA+ Sjögren's disease", "result": "significantly increased binding"},
      {"measurement": "Serum IgG binding to the peptide compared to controls", "setting": "[1]; lupus", "result": "but not lupus or spondyloarthropathy serum IgG, had significantly increased binding"},
      {"measurement": "Serum IgG binding to the peptide compared to controls", "setting": "[1]; spondyloarthropathy", "result": "but not lupus or spondyloarthropathy serum IgG, had significantly increased binding"}
    ]},
    {"sequence": "DKTHTCPPCPAPELLG (IgG epitope) [Peptide P01857-104, native IgG1 hinge peptide, position 104]", "values": [
      {"measurement": "Percent of subjects that would be considered seropositive for IgM antibodies against the peptide using a preliminary cutoff", "setting": "[2]; [3]", "result": 14, "unit": "%"},
      {"measurement": "Percent of subjects that would be considered seropositive for IgM antibodies against the peptide using a preliminary cutoff", "setting": "[2]; [4]", "result": 2, "unit": "%"},
      {"measurement": "Percent of subjects that would be considered seropositive for IgM antibodies against the peptide using a preliminary cutoff", "setting": "[2]; [5]", "result": 23, "unit": "%"},
      {"measurement": "Percent of subjects that would be considered seropositive for IgM antibodies against the peptide using a preliminary cutoff", "setting": "[2]; [6]", "result": 12, "unit": "%"},
      {"measurement": "IgM binding to the peptide", "setting": "[2]", "result": "bound"},
      {"measurement": "Percent of subjects that would be considered seropositive for IgM antibodies against the peptide using a preliminary cutoff", "setting": "[2]; Smoker (current smokers, n=10)", "result": 20, "unit": "%"},
      {"measurement": "IgG binding to the peptide", "setting": "[1]", "result": "bound"}
    ]},
    {"sequence": "KDTLMISRTPEVTCVV (IgG epitope) [Peptide P01857-131, native IgG1 peptide, position 131]", "values": [
      {"measurement": "IgM that binds to the peptide", "setting": "[2]", "result": "increased"},
      {"measurement": "Percent of subjects that would be considered seropositive for IgM antibodies against the peptide using a preliminary cutoff", "setting": "[2]; [3]", "result": 45, "unit": "%"},
      {"measurement": "Percent of subjects that would be considered seropositive for IgM antibodies against the peptide using a preliminary cutoff", "setting": "[2]; [4]", "result": 2, "unit": "%"},
      {"measurement": "Percent of subjects that would be considered seropositive for IgM antibodies against the peptide using a preliminary cutoff", "setting": "[2]; [5]", "result": 0, "unit": "%"},
      {"measurement": "Percent of subjects that would be considered seropositive for IgM antibodies against the peptide using a preliminary cutoff", "setting": "[2]; [6]", "result": 0, "unit": "%"},
      {"measurement": "IgM binding to the peptide", "setting": "[2]", "result": "not bound"},
      {"measurement": "Percent of subjects that would be considered seropositive for IgM antibodies against the peptide using a preliminary cutoff", "setting": "[2]; Smoker (current smokers, n=10)", "result": 0, "unit": "%"},
      {"measurement": "IgG binding to the peptide", "setting": "[1]", "result": "not bound"}
    ]},
    {"sequence": "LAPSSJSTSGGTAALGC [Peptide P01857-11J]", "values": [
      {"measurement": "Plasma IgG that binds to the peptide", "setting": "plasma IgG", "result": "higher"}
    ]},
    {"sequence": "LTVDKSRWQQGNVFSC (IgG epitope) [Peptide P01857-293, native IgG1 peptide, position 293]", "values": [
      {"measurement": "IgM that binds to the peptide", "setting": "[2]", "result": "increased"},
      {"measurement": "Percent of subjects that would be considered seropositive for IgM antibodies against the peptide using a preliminary cutoff", "setting": "[2]; [3]", "result": 12, "unit": "%"},
      {"measurement": "Percent of subjects that would be considered seropositive for IgM antibodies against the peptide using a preliminary cutoff", "setting": "[2]; [4]", "result": 0, "unit": "%"},
      {"measurement": "Percent of subjects that would be considered seropositive for IgM antibodies against the peptide using a preliminary cutoff", "setting": "[2]; [5]", "result": 3, "unit": "%"},
      {"measurement": "Percent of subjects that would be considered seropositive for IgM antibodies against the peptide using a preliminary cutoff", "setting": "[2]; [6]", "result": 0, "unit": "%"},
      {"measurement": "IgM binding to the peptide", "setting": "[2]", "result": "not bound"},
      {"measurement": "Percent of subjects that would be considered seropositive for IgM antibodies against the peptide using a preliminary cutoff", "setting": "[2]; Smoker (current smokers, n=10)", "result": 0, "unit": "%"},
      {"measurement": "IgG that binds to the peptide", "setting": "[1]; COVID-19 convalescent subjects versus RA+, RA−, smokers and naïve controls, FIG. 8B", "result": "increased"},
      {"measurement": "IgG binding to the peptide", "setting": "[1]", "result": "not bound"}
    ]},
    {"sequence": "LYSJLTVDJSRWQQGNVFS [Peptide P01857-289J]", "values": [
      {"measurement": "Plasma IgG that binds to the peptide", "setting": "plasma IgG", "result": "higher"}
    ]},
    {"sequence": "LYSKLTVDKSBWQQGNVFS (LYSKLTVDKS[Cit]WQQGNVFS) [Peptide P01857-289B, citrulline (B)-containing IgG1 peptide, position 289]", "values": [
      {"measurement": "Plasma IgM that binds to the peptide", "setting": "plasma IgM", "result": "higher"}
    ]},
    {"sequence": "RDELTKNQVSLTCLVK (IgG epitope) [Peptide P01857-238, native IgG1 peptide, position 238]", "values": [
      {"measurement": "IgM that binds to the peptide", "setting": "[2]", "result": "increased"},
      {"measurement": "Percent of subjects that would be considered seropositive for IgM antibodies against the peptide using a preliminary cutoff", "setting": "[2]; [3]", "result": 44, "unit": "%"},
      {"measurement": "Percent of subjects that would be considered seropositive for IgM antibodies against the peptide using a preliminary cutoff", "setting": "[2]; [4]", "result": 0, "unit": "%"},
      {"measurement": "Percent of subjects that would be considered seropositive for IgM antibodies against the peptide using a preliminary cutoff", "setting": "[2]; [5]", "result": 6, "unit": "%"},
      {"measurement": "Percent of subjects that would be considered seropositive for IgM antibodies against the peptide using a preliminary cutoff", "setting": "[2]; [6]", "result": 4, "unit": "%"},
      {"measurement": "IgM binding to the peptide", "setting": "[2]", "result": "not bound"},
      {"measurement": "Percent of subjects that would be considered seropositive for IgM antibodies against the peptide using a preliminary cutoff", "setting": "[2]; Smoker (current smokers, n=10)", "result": 0, "unit": "%"},
      {"measurement": "IgG binding to the peptide", "setting": "[1]", "result": "not bound"}
    ]},
    {"sequence": "TYICNVNHJPSNTJVDJJVEPJSC [Peptide P01857-80J]", "values": [
      {"measurement": "Plasma IgG that binds to the peptide", "setting": "plasma IgG", "result": "higher"}
    ]},
    {"sequence": "YJCJVSNJALPAP [Peptide P01857-202J]", "values": [
      {"measurement": "Plasma IgG that binds to the peptide", "setting": "plasma IgG", "result": "higher"}
    ]}
  ]
}
